The values that follow come from patent US6750213B2, “Estrogen receptor modulators” (Merck & Co., Inc., priority 2000, dated 2004).

pEC50: −log10 of the molar value.

The subject of this assay is MCF-7 cells. In words: MCF-7 Estrogen Dependent Proliferation Assay. In kind it is cell-based. The conditions noted are these: Homo sapiens, MCF7, addition to Estrogen Depleted Media (EDM), read-out: EC50 of stimulation of growth of MCF-7 cells. The source says: MCF-7 cells (ATCC #HTB-22) are human mammary gland adenocarcinoma cells that require estrogen for growth. The growth media (GM) for the MCF-7 cells is Minimum Essential Media (without phenol red) supplemented with fetal bovine serum(FBS) to 10%. The FBS serves as the sole source of estrogen and this GM supports the full growth of the cells and is used for the routine growth of the cell cultures. When MCF-7 cells are placed in a media in which 10% Charcoal-Dextran treated fetal bovine serum (CD-FBS) is substituted for FBS, the cells will cease to divide but will remain viable. […] The addition of estradiol to EDM stimulates the growth of the MCF-7 cells in a dose dependent manner with an EC50 of 2 pM. Growing MCF-7 cells are washed several times with EDM and the cultures then maintained in EDM for a minimum of 6 days in order to deplete the cells of endogenous estrogen. […] At this point, the culture supernatants are aspirated, the cells washed 2×with PBS, the wash solution aspirated and the protein content of each well determined. Each drug dilution is evaluated on a minimum of 5 wells and the range of dilution of the test compounds in the assay is […] to 1000 nM. […] The assay is terminated at day 8-10 when the appropriate controls reach 80-90% confluency and the protein content of each well is determined as above.

As for `C[C@]12CC[C@@H]3c4ccc(O)cc4CC[C@H]3[C@@H]1CC[C@@H]2O` [estradiol], the pEC50 is 11.70.
